Experimental data taken from US20100189681A1, “Methods of Using Phosphoantigens Together with Interleukin-2 for the Treatment of Cancer” (INNATE PHARMA S.A., priority 2007, published 2010).
Entries after “also recorded” stand apart in the source; their conditions may differ.

Experiments:
γδ T cells [1] = assay: Phase II clinical trial in B-NHL with rituximab, γδ T cell fold increase; type: in vivo, human; conditions: for γδ T cell fold increase as compared to pre-dose (mean): B-NHL, Phosphostim once day 7, rituximab 375 mg/m^2, measured day 0 and day 145
Experimental: (§1) 5 patients suffering from B-NHL are treated with 4 MIU total in human daily (arm A, 3 patients), or 8 MIU total in human daily (arm B, 2 patients). The treatment regimen used for this study is set out in FIG. 4B.
(§2) Rituxan™ (rituximab) is administered at a dose of 375 mg/m^2, on day 0 and then on day 7, 14 and 21, which corresponds to the common Rituxan™ treatment. Phosphostim™ is administered once on day 7 which is the first day of treatment. IL-2 is administered daily subcutaneous (s.c.) from day 7 to day 11. On day 7, IL-2 is administered 10 minutes after the end of Phosphostim™ infusion.
γδ T cell population is measured through cytometry on day 0 (before the beginning of the treatment) and on day 145 (corresponds to day 7 from the beginning of the Phosphostim™ treatment. The expansion of γδ T cell is obtained in fold increase compared to the basal γδ T cell count.

NK cells = assay: Phase II clinical trial in mRCC, NK cell fold increase day 7 vs pre-dose; type: in vivo, human; conditions: Phosphostim with IL-2 2 MIU or 8 MIU total daily (FIG. 3)
Experimental: (§3) FIG. 3 has been obtained from observations made during the clinical trial as described above. On day 7, cell subsets were determined and compared to the count made on day 0, before the treatment.
(§4) A specific pharmacological expansion of γδ T cell with Phosphostim™ was observed, and this expansion was related to dose of IL-2 administered. […] Moreover, despite an increased dose of IL-2 compared to previous publications, this expansion is still very specific to γδ T cells.

total T cells = assay: Phase II clinical trial in mRCC, total T cell fold increase day 7 vs pre-dose; type: in vivo, human; conditions: Phosphostim with IL-2 2 MIU or 8 MIU total daily (FIG. 3)
Experimental: as §3, §4

γδ T cells [2] = assay: Phase I BrHPP dose escalation with IL-2 1 MU/m^2, γδ T cell amplification (FIG. 7); type: in vivo, human; conditions: BrHPP 100, 300, 600 and 900 MU/m^2 iv 30 min infusion day 1; IL-2 1 MU/m^2 daily for four days
Experimental: The first four columns (corresponding to 100, 300, 600 and 900 MU/m^2 doses of BrHPP) correspond to patients treated with BrHPP (iv, 30 min infusion on day 1) and IL-2 (1 MU/m^2 daily for four days starting on day 1) whereas the last two columns represent B-NHL patients who have been treated with 4 MIU total in human daily (arm A), or 8 MIU total in human daily (arm B), in the treatment setting described for FIG. 6.

γδ T cells [3] = assay: Phase II clinical trial in mRCC, γδ T cell fold increase day 7 vs pre-dose (flow cytometry); type: in vivo, human
Experimental: Blood samples (4 ml) were withdrawn into EDTA containing tubes. Tubes were shipped overnight at room temperature (RT) before flow cytometry analyses.
Peripheral lymphocytes were analyzed by flow cytometry on total blood, after triple staining with anti-Vδ2FITC, anti-CD3PE and anti-CD25PC5 antibodies (Vδ2-FITC: IMMU389 clone, Immunotech-Beckman-Coulter, Marseilles, France; CD3-PE: UCHT1 clone, Immunotech-Beckman-Coulter; CD25PC5: M-A251 clone, Becton Dickinson, Le Pont de Claix, France).
Briefly, 100 μl patient blood was incubated 15 min at RT with 10 μl anti-Vdelta2-FITC, 10 μl anti-CD3-PE and 10 μl anti-CD25PC5 antibodies. Antibodies were washed with 3 ml 1×PBS, centrifuged for 4 min at 1300 rpm at RT and supernatant was discarded. Red cells were lysed with the OptiLyse B reagent (Immunotech-Beckman-Coulter, Marseilles, France) according to the manufacturer's instructions. At the final step, stained white blood cells were recovered by centrifugation and resuspended in 300 μl 1×PBS+0.2% PFA. Flow cytometry analysis on viable cells was performed on a FacsSCAN apparatus (Becton Dickinson) with the FacsDiva software.
(§5) A phase II clinical trial in mRCC was set up, to test the efficacy of a therapeutic regimen with a fixed dose of Phosphostim™ (750 mg/m^2, 50 ml infusion in 30 min) and two doses of IL-2.
(§6) Patients in Arm A were treated with an IL-2 dose of 2 MIU total daily (equivalent to approximately 1 MIU/m^2 daily). Patients in Arm B were treated with an IL-2 dose of 8 MIU total daily. For practical reasons, and as a human body surface varies from 1.5 to 2.1 m^2 depending on each variable of the patient, a single dose for all the patients of Arm B was fixed. It will be appreciated that when taking the variations in body surface into account, this 8 MIU total daily dose of IL-2 can also be expressed as a range from […] daily.
(§7) Patients suffering from mRCC were treated with a fixed dose of Phosphostim™ (750 mg/m^2, i.v. infusion of 30 min) and IL-2, at a dose of 2 MIU subcutaneous (s.c.) daily (arm A, 18 patients), or 8 MIU s.c. daily (arm B, 21 patients).
(§8) Phosphostim™ was administered once on day 1 which is the first day of treatment. IL-2 is administered daily s.c. from day 1 to day 5. On day 1, IL-2 is administered 10 minutes after the end of Phosphostim™ infusion.
γδ T cell population was measured through cytometry on day 0 (before the beginning of the treatment) and on day 7. The expansion of γδ T cell was obtained in fold increase of expansion compared to the basal γδ T cell count.

[4] = Phase II clinical trial in mRCC, tolerance / toxicity; type: in vivo, human; conditions: mRCC patients
Experimental: as §5, §6, §7, §8

[5] = Phase II clinical trial in B-NHL with rituximab, tolerance / toxicity; type: in vivo, human; conditions: B-NHL patients
Experimental: as §1, §2

Vγ9Vδ2 T cells = assay: IL-2 dose range with fixed dose of Phosphostim in cynomolgus macaque, Vγ9Vδ2 T cell expansion by flow cytometry; type: in vivo, cynomolgus monkeys (M. fascicularis); conditions: Phosphostim 48 mg/kg i.v. once, day 5 vs day 0
Experimental: As detailed in Example 2, a study has been set up on nonhuman primates (Cynomolgus macaques) to investigate the effect of the IL-2 dose on γδ T cell expansion in vivo, with a fixed dose of Phosphostim™ (48 mg/kg). Blood extracts have been dosed by flow cytometry on day 5 and the γδ T cell expansion has been expressed in expansion percentage compared to the basal γδ T cell count.
Follow up of Vγ9Vδ2 T cells in vivo in the macaque has been performed as usual by flow cytometry on days 0 (pre-dose) and 5 of treatment. […]
IL2: recombinant human IL2, Proleukin™, CHIRON; administered daily by subcutaneous (s.c.) route.
Phosphostim™ dose 48 mg/kg administered as 30-min infusion by intravenous (i.v.) route.
Twelve cynomolgus monkeys (M. fascicularis) aged 2.5 to 3.5 years at the start of the study. These animals were naïve of any previous treatment with phosphoantigens or IL2.
The animals have been allocated to 4 dose-groups (0.075, 0.3, 1.2 and 2.4 million UI per day for 7 days), with 3 animals per dose, receiving IL2 daily for 7 days have, and a fixed dose of Phosphostim™ 200 (48 mg/kg) once, on the first day of treatment, with 3 animals per dose.

γδ T cells [6] = conditions: adults with multiple myeloma, intravenous 60-90 mg, within one to three weeks (Kunzmann, 1999); cited from earlier work
[7] = in vivo; cited from earlier work

For “3-(bromomethyl)-3-butanol-1-yl-diphosphate [Phosphostim™]”, the “γδ T cell fold increase as compared to pre-dose (mean)” value (γδ T cells [1]; arm A: IL-2 4 MIU total daily s.c. day 7-11, 3 patients) was 17 fold, the “γδ T cell fold increase as compared to pre-dose (mean)” value (γδ T cells [1]; arm B: IL-2 8 MIU total daily s.c. day 7-11, 2 patients) was 46 fold and the “γδ T cell amplification, higher IL-2 dose compared to lower dose” value (γδ T cells [1]; IL-2 8 MIU total daily vs lower IL-2 doses (FIGS. 6 and 7)) was “much better γδ T cell amplification”. The “NK cell fold increase on day 7 as compared to pre-dose” value (NK cells) was “are not expanded; also recorded: do not observe a significant NK cells expansion”, the “total T cell fold increase on day 7 as compared to pre-dose” value (total T cells) was “are not expanded; also recorded: nor a significant total T cell expansion” and the “influence of the quantity of BrHPP on the γδ T cell amplification” value (γδ T cells [2]) was “slight influence”. For the same molecule, the “γδ T cell expansion, arm B compared to arm A” value (γδ T cells [3]; IL-2 8 MIU total daily vs 2 MIU total daily, fixed Phosphostim 750 mg/m^2) was “significantly better γδ T cell expansion; also recorded: significantly higher”, the “γδ T cell fold increase on day 7 as compared to pre-dose (mean)” value (γδ T cells [3]; arm A: IL-2 2 MIU total daily s.c. day 1-5, Phosphostim 750 mg/m^2 i.v. day 1, 18 patients (FIG. 2)) was 3 fold and the “γδ T cell fold increase on day 7 as compared to pre-dose (mean)” value (γδ T cells [3]; arm A: IL-2 2 MIU total daily, updated results, 29 patients (FIG. 5)) was 2 fold. For the same molecule, the “γδ T cell fold increase on day 7 as compared to pre-dose (mean)” value (γδ T cells [3]; arm B: IL-2 8 MIU total daily s.c. day 1-5, Phosphostim 750 mg/m^2 i.v. day 1, 21 patients (FIG. 2)) was 12 fold, the “γδ T cell fold increase on day 7 as compared to pre-dose (mean)” value (γδ T cells [3]; arm B: IL-2 8 MIU total daily, updated results, 31 patients (FIG. 5)) was 8 fold and the “toxicity in Arm B compared to Arm A” value ([4]; IL-2 8 MIU vs 2 MIU total daily with Phosphostim) was “none of the patients in arm B experienced an adverse toxicity effect; also recorded: no significant difference in toxicity”. The “tolerance to the IL-2 dose administered with Phosphostim” value ([4]; arm B IL-2 8 MIU total daily) was “good tolerance”, the “toxicity in Arm B compared to Arm A” value ([5]; IL-2 8 MIU vs 4 MIU total daily) was “no significant difference in toxicity” and the “tolerance to the IL-2 dose administered with Phosphostim and rituximab” value ([5]; arm B IL-2 8 MIU total daily) was “good tolerance”. For the same molecule, the “γδ T cell expansion” value (Vγ9Vδ2 T cells; IL-2 0.075 MIU/animal/day s.c. for 7 days) was “not sufficient to induce a γδT cell specific amplification; also recorded: no effect”, the “γδ T cell expansion” value (Vγ9Vδ2 T cells; IL-2 0.3 MIU/animal/day s.c. for 7 days) was “specific and significant γδcell expansion; also recorded: weak γδT cell increase” and the “γδ T cell expansion” value (Vγ9Vδ2 T cells; IL-2 1.2 MIU/animal/day s.c. for 7 days) was “the expansion is higher; also recorded: significantly higher increase; also recorded: a plateau is observed at this dose”. For the same molecule, the “γδ T cell expansion” value (Vγ9Vδ2 T cells; IL-2 2.4 MIU/animal/day s.c. for 7 days) was “the expansion is higher; also recorded: significantly higher increase; also recorded: does not trigger a better expansion than 1.2 MIU/animal/daily”.

For NCCC(O)(P(=O)(O)O)P(=O)(O)O [pamidronate, 3-amino-1-hydroxypropane-1,1-diphosphonic acid], the “circulating γδ T cells” value (γδ T cells [6]) is given as “increases of circulating γδ T cells”.

In the case of “des-alanyl-1, serine-125-human interleukin-2 [IL-2]”, the toxicity grade reported [7] is listed as “grade III or IV toxicity”.
